US6384045B1, “Tricyclic and tetracyclic pyrones” (Kansas State University Research Foundation, priority 1997, dated 2002)
“Also recorded” adds a separate entry of the source.

Columns and labels:
[1] = system: T1, liver and intestinal microsomal ACAT; test: Inhibition of liver and intestinal microsomal ACAT activity; format: biochemical
T1 construct: other: 100 μM; other: 44 nM; other: 50 μM
Description: . Microsomes were prepared from liver and intestinal mucosal scrapings by sequential centrifugation and in vitro ACAT activity assays were done according to the method of Billheimer (Billheimer, J. T. (1985), “Cholesterol acyltransferase,” In Methods in Enzymology 111:286-293). Briefly, 100 μg microsomal protein, 22 μg BSA, and 52 nmol cholesterol and the synthesized drug in 5 μL DMSO were preincubated for 30 minutes at 37° C. in a phosphate buffer (200 μL total volume). After 30 minutes, 1 nmol [^14C]oleoyl-CoA was added as substrate and incubated for an additional 20 minutes. The reaction was stopped with the addition of 1 mL ethanol and lipids were extracted with hexane. Cholesteryl [^14C]oleate formation was quantified by thin-layer chromatography and data are expressed as percent inhibition of ACAT activity (pmol/μg protein per minute) compared to a control sample incubated with no drug. All samples were run in duplicate. […]

[2] = system: L1210 lymphoblastic leukemia cells; test: Inhibition of L1210 tumor cell growth in vitro (Coulter counter); format: cell-based, Murine; conditions: for inhibition of L1210 cell growth (% reduction of control cell numbers): 50 μM, 3 and 4 days in culture; for reduction of L1210 cell numbers vs control: 0.78 μM
Description: Cells were plated at an initial density of 1×10^4 cells/0.5 ml/well in RPMI 1640 medium, containing 7.5% fortified bovine calf serum, and grown at 37° C. for 4 days in a humidified incubator in 5% CO2 in air. Cells were incubated in the presence or absence (^•, control) of 50 μM 3A (▪), 2D & 2E (□),3D & 3E (▴), 2B & 2C (Δ) 2A (♦), 3B & 3C (⋄), or 10 μM CPT (∘) and their density was monitored in triplicate every 24 h using a Coulter counter. Cells numbers are plotted on a logarithmic scale.
(§1) All solutions of tricyclic pyrone analogs were dissolved and diluted in 100% ethanol (ETOH), whereas CPT (Sigma Chemical Co., St. Louis, Mo.) solutions were prepared in 100% dimethyl sulfoxide (DMSO). Murine L1210 lymphoblastic leukemia cells, obtained from the American Type Culture Collection (Rockville, Md.), were maintained in continuous exponential growth by twice-a-week passage in RPMI 1640 medium supplemented with 7.5% fortified bovine calf serum (HyClone Laboratories, Inc., Logan, Utah). The cultures were incubated at 37° C. in a humidified atmosphere containing 5% CO2. All drugs were supplemented to the culture medium in 1- or 2 μl aliquots. The concentration of vehicle in the final incubation volume never exceeded 0.2-0.4%. […] Control cells incubated in the absence of drugs were similarly treated with vehicle only and, in every experiment, all incubates received the same volume of solvent.
For tumor cell growth, L1210 cells were resuspended in fresh serum-containing RPMI 1640 medium, plated at an initial density of 1×10^4 cells/0.5 ml, and incubated in 48-well Costar cell culture plates (Costar, Cambridge, Mass.). Cells were grown for 4 days in the presence or absence of drugs and their density was monitored every 24 h using a Coulter counter (Coulter Electronics, Ltd., Luton Beds, England). Data of all in vitro experiments were analyzed using Student's t-test with the level of significance set at P<0.05.

[3] = system: L1210 lymphoblastic leukemia cells; test: Inhibition of DNA synthesis (3H-thymidine incorporation) in L1210 cells in vitro; format: cell-based, Murine
Description: FIG. 1 illustrates a comparison of the effects of four new tricyclic pyrone derivatives and CPT on DNA synthesis in L1210 cells in vitro. About 2.53×10^6 cells suspended in 0.5 ml of RPMI 1640 medium were incubated at 37° C. for 90 minutes in the presence or absence (control) of the indicated concentrations of drugs. The cells were then pulse-labeled for an additional 30 minutes to determine the rate of ^3H-thymidine incorporation into DNA. DNA synthesis in vehicle-treated control cells was 43,956±4,569 cpm (100±11%). The blank value (1,241±99 cpm) for cells pulse-labeled for 0 minutes with 1 μCi of ^3H-thymidine has been subtracted from the results. Bars: means±SD (n=3).
as §1
For DNA synthesis, L1210 cells were resuspended in fresh serum-free RPMI 1640 medium at a density of about 2.5×10^6 cells/0.5 ml. The cells were incubated at 37° C. for 90 min in the presence or absence of drugs and then pulse-labeled for an additional 30 min with 1 μCi of [methyl-^3H]thymidine (51 Ci/mmol; Amersham Corp., Arlington Heights, Ill.). The incubations were terminated by the addition of 0.5 ml of 10% trichloroacetic acid (TCA). After holding on ice for 15 min, the acid-insoluble material was recovered over Whatman GF/A glass microfibre filters and washed thrice with 2 ml of 5% TCA and twice with 2 ml of 100% EtOH. After drying the filters, the radioactivity bound to the acid-precipitable material was determined by liquid scintillation counting in 10 ml of Bio-Safe NA (Research Products International Corp., Mount Prospect, Ill.).

[4] = molecular target: acetylcholinesterase (AChE) (UniProt O42275); format: biochemical, electric eel; fetal bovine serum; conditions: read-out: AChE inhibition constant Ki ± std. error; 30° C., pH 8.0
Chain of acetylcholinesterase (AChE) (O42275 whole entry): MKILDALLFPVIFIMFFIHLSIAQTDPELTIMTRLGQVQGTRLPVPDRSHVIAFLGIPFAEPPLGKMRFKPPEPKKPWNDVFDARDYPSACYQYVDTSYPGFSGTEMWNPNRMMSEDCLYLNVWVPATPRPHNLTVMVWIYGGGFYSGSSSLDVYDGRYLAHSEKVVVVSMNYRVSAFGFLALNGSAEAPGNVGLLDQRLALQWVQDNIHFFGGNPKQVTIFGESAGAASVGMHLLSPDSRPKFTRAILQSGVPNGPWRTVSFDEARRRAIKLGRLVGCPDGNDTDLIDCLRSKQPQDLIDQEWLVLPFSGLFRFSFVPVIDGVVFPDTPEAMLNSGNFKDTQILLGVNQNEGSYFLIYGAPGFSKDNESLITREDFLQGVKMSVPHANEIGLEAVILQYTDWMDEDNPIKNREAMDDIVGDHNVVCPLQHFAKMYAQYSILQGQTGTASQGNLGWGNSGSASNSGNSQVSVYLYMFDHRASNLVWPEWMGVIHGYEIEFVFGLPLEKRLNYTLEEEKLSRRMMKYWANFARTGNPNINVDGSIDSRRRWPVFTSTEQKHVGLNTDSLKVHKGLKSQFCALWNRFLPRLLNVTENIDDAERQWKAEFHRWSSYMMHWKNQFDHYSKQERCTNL
Description: Acetylcholinesterase Assay and Inhibition Kinetics: Tricyclic pyrones of this invention were tested for inhibition of AChE. […] Reactions were carried out at 30° C. in 0.1 M sodium phosphate buffer at pH 8.0 in the presence of […] and 3.3×10^−4 M 3-carboxy-4-nitrophenyl disulfide. Aliquots of incubating mixtures containing enzyme alone, or enzyme in the presence of each carbamate, were withdrawn at selected time intervals and assayed for enzyme activity in order to obtain kinetic data. From the kinetic data, inhibition and bimolecular rate constants were calculated by the equation: [formula]
in which kapp is the pseudo-first-order rate constant.

[5] = 50 μM, 90 min + 30 min pulse, 50 µM

With `O=c1oc(-c2cccnc2)cc2c1[C@@H](O)[C@@]1(O)CCCC[C@@H]1O2` (relative stereo) [Compound 38B, (5aS*,9aR*,10R*)-9a,10-Dihydroxy-3-(3-pyridyl)-1H-5a,6,7,8,9,9a,10-heptahydro-1-oxopyrano[4,3-b][1]benzopyran] the “% Inhibition of ACAT” value ([1]; 50 μM) was 9.7% and the “% Inhibition of ACAT” value ([1]; 100 μM) was 11.4%.

`CC12Oc3cc(-c4cccnc4)oc(=O)c3C=C1CCCC2O` (stereo not drawn) [2B & 2C, cis- and trans-3-(3-pyridyl)-5a-methyl-6-hydroxy-1H-5a,6,7,8,9-pentahydro-1-oxopyrano[4,3-b]benzopyran] was tested, and the “inhibition of L1210 cell growth (% reduction of control cell numbers)” value [2] was “cannot inhibit the growth”.

`CC12Oc3cc(-c4cccnc4)oc(=O)c3C=C1CCCC2OC=O` (stereo not drawn) [2D & 2E, cis- and trans-3-(3-pyridyl)-5a-methyl-6-formyloxy-1H-5a,6,7,8,9-pentahydro-1-oxopyrano[4,3-b]benzopyran] was tested, and the “inhibition of L1210 cell growth (% reduction of control cell numbers)” value [2] was “cannot inhibit the growth”, the “inhibition of DNA synthesis in L1210 cells” value (“inhibition of DNA synthesis” for short) ([3]; 25 μM, 90 min + 30 min pulse) was “no significant effects” and the “inhibition of DNA synthesis” value [3, 5] was 49%.

`CCCCCCCC[C@H](SCCCCCC)C(=O)Nc1c(SC)cc(C)nc1SC` [CP-113,818, reference compound] was tested, and the “% Inhibition of ACAT” value ([1]; 44 nM) was 42.5%.

With `CC[C@@]1(O)C(=O)OCc2c1cc1n(c2=O)Cc2cc3ccccc3nc2-1` [CPT, 20(S)-camptothecin (CPT), reference compound] the “reduction of L1210 cell numbers vs control” value (from here on “reduction … vs control”) ([2]; 1 day) was 46%, the “reduction … vs control” value ([2]; 2 days) was 85% and the “reduction … vs control” value ([2]; 3 days) was 97%. For the same compound, the “reduction … vs control” value ([2]; 4 days) was 99% and the IC50 ([3]; Mus musculus, L1210, 2 h, read-out: concentration that inhibits DNA synthesis by 50% (IC50)) was about 0.65 µM.

`Cc1cc2c(c(=O)o1)C=C1CCCCC1O2` (stereo not drawn) [Compound 1A, 3-methyl-1H-5a,6,7,8,9-pentahydro-1-oxopyrano[4,3-b]-[i]benzopyran] was tested, and the Ki [4] was 7 ± 1.2 µM and the inhibition at 50 µM ([3]; Mus musculus, L1210, 50 μM, 90 min + 30 min pulse) was 17 to 32%.

`Cc1cc2c(c(=O)o1)C=C1CCC[C@H](O)[C@@]1(C)O2` [Compound 1B, cis-3-5a-dimethyl-6-hydroxy-1H-5a,6,7,8,9-pentahydro-1-oxopyrano[4,3-b][1]benzopyran] was tested, and the Ki [4] was 20 ± 5.8 µM.

Work on `Cc1cc2c(c(=O)o1)C=C1CCCC(OC=O)C1(C)O2` (stereo not drawn) [Compound 1D, cis-3-5-a-dimethyl-6-formyloxy-1H-5a,6,7,8,9-pentahydro-1-oxopyrano[4,3-b][1]benzopyran] yielded an IC50 ([1]; using literature IC50 of pyripyropene as standard) of 52 µM and a Ki [4] of 5 ± 1.7 µM.

Work on `CC12Oc3cc(-c4cccnc4)oc(=O)c3C=C1CCCC2O` (stereo not drawn) [Compound 2B, cis-3-(3-pyridyl)-5a-methyl-6-hydroxy-1H-5a,6,7,8,9-pentahydro-1-oxopyrano[4,3-b][1]benzopyran] yielded a Ki [4] of 8 ± 2.3 µM.

`CC12Oc3cc(-c4cccnc4)oc(=O)c3C=C1CCCC2OC=O` (stereo not drawn) [Compound 2D, cis-3-(3-pyridyl)-5a-methyl-6-formyloxy-1H-5a,6,7,8,9-pentahydro-1-oxopyrano[4,3-b][1]benzopyran] gave a Ki [4] of 26 ± 2.3 µM.

Compound `COc1ccc(-c2cc3c(c(=O)o2)C=C2CCCC(O)C2(C)O3)cc1OC` (stereo not drawn) [Compound 3B, cis-3-(3,4-dimethoxyphenyl)-5a-methyl-6-hydroxy-1H-5a,6,7,8,9-pentahydro-1-oxopyrano[4,3-b][1]benzopyran] has a Ki [4] of 4 ± 0.6 µM.

`COc1ccc(-c2cc3c(c(=O)o2)C=C2CCCC(OC=O)C2(C)O3)cc1OC` (stereo not drawn) [Compound 3D, cis-3-(3,4-Dimethoxyphenyl)-6-formyloxy-5a-methyl-1H-5a,6,7,8,9-pentahydro-1-oxopyrano[4,3-B][1]benzopyran] was tested, and the Ki [4] was 15 ± 5.8 µM.

In the case of `O=c1occc2nc3c(cc12)CCCC3` [Compound 24, 1H-6,7,8,9-tetrahydro-1-oxopyrano[4,3-b]quinoline], the “% Inhibition of ACAT” value ([1]; 50 μM) is reported as 1.9% and the “% Inhibition of ACAT” value ([1]; 100 μM) is reported as 3.3%.

`Cc1cc2ncc3c(c2c(=O)o1)CCCC3` [Compound 26, 1H-3-methyl-7,8,9,10-tetrahydropyrano[4,3-c]isoquinolin-1-one] was tested, and the “% Inhibition of ACAT” value ([1]; 50 μM) was 2.7% and the “% Inhibition of ACAT” value ([1]; 100 μM) was 13.7%.

In the case of `C=C(C)[C@H]1CCC2=Cc3c(cc(C)oc3=O)O[C@H]2C1` [Compound 28, (5aS,7S)-7-Isopropenyl-3-methyl-1H-5a,6,7,8,9-pentahydro-1-oxopyrano[4,3-b][1]benzopyran], the “% Inhibition of ACAT” value ([1]; 50 μM) is reported as 17% and the “% Inhibition of ACAT” value ([1]; 100 μM) is reported as 30%.

With `C=C(C)[C@H]1CCC2=Cc3c(cc(-c4cccnc4)oc3=O)O[C@H]2C1` [Compound 29, (5aS,7S)-7-Isopropenyl-3-(3-pyridyl)-1H-5a,6,7,8,9-pentahydro-1-oxopyrano[4,3-b][1]benzopyran] the “% Inhibition of ACAT” value ([1]; 50 μM) was 21% and the “% Inhibition of ACAT” value ([1]; 100 μM) was 39%.

In the case of `C=C(C)[C@H]1CCC2=Cc3c(cc(-c4ccc(OC)c(OC)c4)oc3=O)OC2C1` (stereo partly drawn) [Compound 30, (5aS,7S)-7-Isopropenyl-3-(3,4-dimethoxyphenyl)-1H-5a,6,7,8,9-pentahydro-1-oxopyrano[4,3-b][1]benzopyran], the “% Inhibition of ACAT” value ([1]; 50 μM) is reported as 13.3% and the “% Inhibition of ACAT” value ([1]; 100 μM) is reported as 21.9%.

For `O=C(O)Cc1cc2c(c(=O)o1)C=C1CCCCC1O2` (stereo not drawn) [Compound 32, 3-(Carboxymethyl)-1H-5a,6,7,8,9-pentahydro-1-oxopyrano[4,3-b][1]benzopyran], the “% Inhibition of ACAT” value ([1]; 50 μM) was 10.3% and the “% Inhibition of ACAT” value ([1]; 100 μM) was 7.9%.

With `O=C(CCCCC(=O)Cc1cc2c(c(=O)o1)C=C1CCCCC1O2)Cc1cc2c(c(=O)o1)C=C1CCCCC1O2` (stereo not drawn) [Compound 33, 1,8-Di-{3-[1H-5a,6,7,8,9-pentahydro-1-oxopyrano[4,3-b][I]benzopyranyl]}-2,7-octanedione] the “% Inhibition of ACAT” value ([1]; 50 μM) was 57% and the “% Inhibition of ACAT” value ([1]; 100 μM) was 76%.

`CCCCC(=O)OCC(C)[C@H]1CCC2C(O)c3c(cc(-c4ccc(OC)c(OC)c4)oc3=O)O[C@H]2C1` (stereo partly drawn) [Compound 37, (5aS,7S)-7-[2-(1-Pentanoyloxypropyl)]-10-hydroxy-3-(3,4-dimethoxyphenyl)-1H-5a,6,7,8,9,9a,10-heptahydro-1-oxopyrano[4,3-b][1]benzopyran] was tested, and the “% Inhibition of ACAT” value ([1]; 50 μM) was 36.8% and the “% Inhibition of ACAT” value ([1]; 100 μM) was 52.4%.

With “tri(deacetyl)pyripyropene A [Compound 22]” the “inhibition of DNA synthesis” value ([3]; 25 μM, 90 min + 30 min pulse) was “no significant effects” and the “inhibition of DNA synthesis” value [3, 5] was “no effect; also recorded: ineffective; also recorded: fail to inhibit DNA synthesis”.
